{"source": "patent US20200087314A1", "about": "“HISTONE DEACETYLASE INHIBITORS” (BIOMARIN PHARMACEUTICAL INC., priority 2016, published 2020)", "tested_on": "Frataxin (FXN) mRNA expression", "assay": "Effect of HDAC inhibitors on frataxin (FXN) mRNA expression in iPSC derived neuronal cells (qRT-PCR)", "type": "cell-based", "details": "iPSC derived neuronal cells differentiated 16 days, compound incubated 24 h", "description": "Effect of HDAC Inhibitors on Frataxin (FXN) mRNA Expression\nMethod: mRNA quantification of compound-treated iPSC derived neuronal cells Neuronal stem cells were cultured in Neurobasal A medium (Life technologies #10888022) supplemented with N2, B27 (Life technologies #17502-048 and #17504-044), L-glutamine (Life technologies #25030081), supplemented with 20 ng/ml EGF (R&D Systems #236-EG) and 20 ng/ml bFGF (BioPioneer # HRP-0011). Neuronal differentiation was initiated by removing growth factors and culturing cells in Neurobasal A with N2 and B27. Cells were allowed to differentiate for 16 days. HDAC inhibitory compound was then added and incubate for 24 h. RNA isolation was performed using the RNeasy Plus mini kit (QIAgen #74134) using a QIAcube instrument per manufacturer's instructions. qRT-PCR was performed using qScript One-Step SYBR Green qRT-PCR Kit (Quanta Biosciences 170-8893BR) with the following conditions: 20 minutes at 50° C., 5 minutes at 95° C., and then 40 cycles of 20 seconds at 95° C., 20 seconds at 55° C., 30 seconds at 72° C. The primer sequences to detect expression of FXN were: 5′-[…]-3′ and 5′-[…]-3′.\nData for additional compounds for iPSC fold inductions and cLogP are shown in Table 4 The ranges reported for cLogP refer to the following. A<1, 1<B<2, 2<C<3, 3<D<5, E>5. NA refers to “not available.”"}
{"compound": "Nc1ccccc1NC(=O)c1ccc(CC2CCN(CC3CC3)C2)cc1", "note": "(stereo not shown) [Compound 555, N-(2-aminophenyl)-4-((1-(cyclopropylmethyl)pyrrolidin-3-yl)methyl)benzamide]", "values": [{"measurement": "Fold Induction", "value": 1.11}]}
